Paper PMC3625590, “NBM-T-L-BMX-OS01, Semisynthesized from Osthole, Is a Novel Inhibitor of Histone Deacetylase and Enhances Learning and Memory in Rats” (Evidence-based Complementary and Alternative Medicine : eCAM, 2013)

Tests used:
[1] = test system: primary hippocampal neurons; assay: MTT cell survival assay; assay type: cell-based, Sprague-Dawley rats; conditions: 1, 2.5, 5 and 10 μM, DIV 5, 24 h
Method: (§1) The primary hippocampal culture was prepared as described previously. To culture embryonic hippocampal primary neurons, pregnant Sprague-Dawley rats were purchased from the National Laboratory Center in Taiwan. The hippocampal tissue from the embryos of the Sprague-Dawley rats (E19) was dissociated with 100 U/mL of papain (Sigma-Aldrich) and plated onto poly-L-lysine-coated coverslips at a density of 1 × 10^4 cells/cm^2 with a minimal essential medium containing 5% calf serum, 5% horse serum, and 50 ng/mL insulin-transferrin-selenite (Sigma-Aldrich). Three hours after plating, the medium was replaced with 2% of a B27-neurobasal medium (Invitrogen, Carlsbad, CA, USA) containing 0.5 mM glutamine and 12.5 μM glutamate.
Cell viability was evaluated by an MTT (3-(4,5-dimethylthiazol-2-yl)-2,5-diphenyl tetrazolium bromide, Sigma-Aldrich) assay 24 h after SAHA and BMX treatment at concentrations of 0, 1, 2.5, 5, and 10 μM. The protocol was performed as described previously. Cells were incubated with an MTT (0.5 mg/mL) reagent (Sigma-Aldrich) at 37°C for 1 h. The MTT solution was removed, and DMSO was added to the wells shaken at room temperature for 1 h. The amount of MTT formazan product was quantified by measuring its absorbance at 570 and 630 nm by using an ELISA plate reader (SpectraMax M2 Microplate Readers, Molecular Devices, Sunnyvale, CA, USA).

[2] = test system: primary hippocampal neurons; assay: Neurite outgrowth by immunocytochemistry; assay type: cell-based, Sprague-Dawley rats
Method: as §1
(§2) Supplemental Materials and Methods
(§3) 2.1. HEK293T cells. HEK293T cells were maintained in Dulbecco’s modified Eagle’s medium (Invitrogen) supplemented with 10% fetal calf serum (Invitrogen). Cultures were maintained in a humidified 5% CO2-95% air atmosphere at 37°C.
2.2. Immunocytochemistry. Cultured hippocampal neurons were fixed with 4% paraformaldehyde for 15 min and permeablized with 0.1% Triton X-100 for 20 min at room temperature (RT). The primary Mouse anti-β III tubulin and anti-actin (Millipore) Abs were added for 1 h at RT. […]
(§4) The lysate was resolved by 8% SDS-PAGE. […] The protein bands were quantified using the NIH Image J Software. […]

HEK293T cells = assay: CRE promoter-luciferase assay; assay type: cell-based
Method: as §2, §3
2.2. Immunocytochemistry. Cultured hippocampal neurons were fixed with 4% paraformaldehyde for 15 min and permeablized with 0.1% Triton X-100 for 20 min at room temperature (RT). The primary Mouse anti-β III tubulin and anti-actin (Millipore) Abs were added for 1 h at RT. After wash, Alexa Fluor 488 […] Ab (Molecular Probes, Europe BV, Leiden, Netherlands) were incubated with cells for 1 h at RT. Coverslips were mounted, and images were obtained by using a Axio Observer D1 microscope (Zeiss, Jena, Germany). Neuronal process longer than […] is defined as neurites.
2.3. Western blot. […]
as §4
FBS. […] The activity of firefly luciferase was measured as firefly luciferase luminescence after reaction with luciferase reagent for 15 min. Next, the activity of Renilla luciferase is measured as Renilla luciferase luminescence after reaction with Stop & Glo reagent for 15 min.
The ratio of firefly luciferase activity to Renilla luciferase activity was calculated and normalized to vector control.

Sco-induced amnesia rats = assay: Passive one-way avoidance, Sco-induced memory impairment; assay type: in vivo, Sprague-Dawley rats; conditions: Sco 1.5 mg/kg/d; BMX or SAHA 5 mg/kg/d i.p.; 1 day and 7 days after footshock
Method: The BMX and SAHA stock (100 mg/mL) was dissolved in DMSO and diluted with saline to a final concentration of 0.5 mg/mL (in 0.5% DMSO/saline). Sco was dissolved in saline to a final concentration of 0.15 mg/mL based on previous studies [35, 36]. SD rats were randomly divided into 3 groups. For the naïve animal experiments, the BMX-injected or SAHA-injected groups were injected with BMX (5 mg/kg/d) or SAHA (5 mg/kg/d) intraperitoneally 7 d prior to behavioral experiments and during the experimentation. The control group received the 0.5% DMSO/saline injection. The injection volume was 10 μL/g of body weight. The injections were performed once per day. For the amnesia experiment, the protocol was adopted from previous studies [35, 36] with modifications. The Sco-injected (SAHA + Sco) or (BMX + Sco)-injected groups were injected with Sco (1.5 mg/kg/d), SAHA (5 mg/kg/d) or BMX (5 mg/kg/d), intraperitoneally 7 d prior to behavioral experiments and during the experimentation. The control group received the 0.5% DMSO/saline injection. The injection volume was 10 μL/g of body weight. […]
The apparatus consisted of a trough-shaped alley divided by a sliding door that separates an illuminated safety compartment and a dark compartment. […] The behavioral task, including the training and testing procedures, was recorded between 8:00 AM and 6:00 PM. […]

## O=C(CCCCCCC(=O)Nc1ccccc1)NO [SAHA, suberoylanilide hydroxamic acid, reference compound]
[1]
  survival rate of primary hippocampal neurons (MTT): reduced the survival rate of the hippocampal neurons at concentrations of 2.5, 5, and 10 μM
[2]
  neurite branch and neurite length: increased the neurite length in particular
HEK293T cells
  CRE-mediated promoter activity: increased
Sco-induced amnesia rats
  retention time in the illuminated chamber: showed less retention time in the illuminated chamber
